# Laboratory results reported in article PMC10298051, “Hyperoside as a UV Photoprotective or Photostimulating Compound—Evaluation of the Effect of UV Radiation with Selected UV-Absorbing Organic Compounds on Skin Cells” (International Journal of Molecular Sciences, 2023).
# Assays:
# HaCaT cells [1] = assay: Mitochondrial membrane potential (JC-1) in pre-treated HaCaT cells after UVA or UVB; type: cell-based, human; details: JC-1, concentration-dependent, UVA 24 J/cm^2 or UVB 1.2 J/cm^2
# Procedure: The mitochondrial membrane potential in HaCaT cells was estimated using the fluorescent probe 5,5′,6,6′-tetrachloro-1,1′,3,3′ tetraethylbenzimidazolylcarbocyanine chloride (JC-1, Biotium, Fremont, CA, USA). After UV irradiation in PBS-G, JC-1 was added to the cells at the final assay concentration of 2 μg/mL and the cells were allowed to incubate for 20 min. Then, the fluorescence emission intensity was measured using a Tecan Infinite 200pro fluorescence reader at excitation and emission wavelengths of 490 nm and 590 nm, respectively.
# [2] = Cytotoxicity (MTT) of UV-absorbing compounds in HaCaT culture without irradiation; type: cell-based, human; details: human, HaCaT keratinocytes, MTT, no irradiation, mean of 3 measurements
# Procedure: (§1) The immortalized human keratinocytes HaCaT and reconstituted three-dimensional human epidermis model (EpiDerm, MatTek Europe, SVK) were grown in high-glucose DMEM (Sigma-Aldrich, Burlington, MA, USA) supplemented with sodium bicarbonate (3.7 g/L, Sigma-Aldrich, Burlington, MA, USA), fetal bovine serum (10% v/v, Biowest, France), and penicillin and streptomycin (100 U/mL and 100 μg/mL, respectively, Sigma-Aldrich, Burlington, MA, USA) in darkness under a humidified atmosphere with 5% CO2 at 37 °C. For all experiments, HaCaT was dissociated using TrypLE Express (Gibco by Thermo Fisher Scientific, Waltham, MA, USA) and transferred into 12-well plates at a total number of 1 × 10^5 cells and cultivated for 24 h. The UV sources with relatively homogeneous irradiance were made from commercially available phototherapeutic UV tubes [13]. […] The irradiance values were 6.8 ± 0.4 mW/cm^2 for the UVA source and 3.5 ± 0.4 mW/cm^2 for the UVB source.
# (§2) HaCaT cells and Epiderm were incubated for 18 h in DMEM supplemented with UV-absorbing compounds. Irradiation of the culture cells was performed in 0.6 mL/well phosphate-buffered saline (PBS) supplemented with 5 mM glucose (PBS-G) in 12-well plates. In the case of the 3D epidermal models, for irradiation, 3 inserts were always placed in one well of a 6-well plate filled with 0.9 mL of PBS-G; otherwise, they were kept separately in a 24-well plate with 0.3 mL of DMEM per well. After irradiation, PBS was replaced with fresh DMEM and the plates with cells were placed in a CO2 incubator for 18 h. The MTT assay was initiated by adding 5 mg/mL of methylthiazol tetrazolium bromide (MTT, Sigma-Aldrich) to DMEM, resulting in a 10-fold lower concentration of MTT in each well. After 3 h, the medium was completely removed and the formazan crystals produced by the cells were dissolved in 0.6 mL of DMSO for cell cultures or in 2 mL of isopropanol for epidermal models. The absorbance of these solutions was spectroscopically measured at 570 nm.
# HaCaT cells [3] = assay: Comet assay of DNA fragmentation in pre-treated HaCaT cells after UVA or UVB; type: cell-based, human; details: UVA 90 min 36 J/cm^2, HMBP 30 μM, 4-MBC 10 μM, t-UCA 300 μM, Ast 100 μM, Hyp 300 μM
# Procedure: DNA damage caused by UVA or UVB radiation to the HaCaT cells pre-treated with UV-absorbing compounds was investigated by a comet assay. The growth medium was replaced by PBS-G and the cells were irradiated by means of the UVA or UVB sources for 90 or 8 min, respectively. After irradiation, PBS-G medium was replaced with DMEM and the cells were allowed to culture for 24 h. The Comet assay was performed as previously described by Manisova and her co-workers. The samples were finally stained by SYBR Green (Invitrogen, Thermo Fisher Scientific, Waltham, MA, USA) and manually scored using an Olympus IX 70 inverted fluorescence microscope with a CCD camera (Olympus, JPN) and CometScore 2.0 software (TriTek, Wilmington, DE, USA). Approximately 100 cells were randomly selected from each sample to assess DNA damage. The amount of DNA in the head (corresponding to low fragmentation) was evaluated.
# HaCaT cells [4] = assay: Intracellular ROS production (CM-H2DCFDA) in pre-treated HaCaT cells after UVA or UVB; type: cell-based, human; details: for ROS production during UVA exposure: UVA 60 min 24 J/cm^2
# Procedure: The production of the intracellular ROS induced by UVA or UVB after 18 h of incubation with UV-absorbing compounds was analyzed using the fluorescence probe 5-(and-6)-chloromethyl-2′,7′-dichlorodihydrofluorescein diacetate (CM-H2DCFDA, Invitrogen by Thermo Fisher Scientific, Waltham, MA, USA). The HaCaT cells were incubated in PBS-G buffer supplemented with 10 μM CM-H2DCFDA for 20 min and then, after washing twice in PBS-G, exposed to UVA or UVB radiation for 60 or 3 min. After irradiation, the fluorescence of CM-DCF was recorded using a Tecan Infinite 200 pro fluorescence reader (Tecan, Männedorf, Switzerland) at excitation and emission wavelengths 490 nm and 525 nm, respectively.
# [5] = system: A549 (lung adenocarcinoma); set-up: method as in PMID 31881478; details: A549, 24 h; read-out: concentration that halved cell viability; cited from earlier work
# epidermis model EpiDerm = assay: MTT viability of pre-treated 3D epidermis model EpiDerm after UVA or UVB exposure; type: cell-based, human; details: 30 μM hyperoside or 100 μM trans-urocanic acid; 18 h or 42 h pre-incubation; UVA 24 or 36 J/cm^2
# Procedure: Control samples without the presence of the compounds are marked as C. Each value represents mean ± S.E. from 3 measurements. * Significant difference compared to the sample without UV-absorbing compound (p < 0.05).
# as §1
# […] The absorbance of these solutions was spectroscopically measured at 570 nm. The relative number of viable (oxidoreductase active) cells in the treated and untreated samples (controls) was expressed as a percentage.
# [6] = system: H1975 (non-small cell lung cancer); details: H1975, 24 h; read-out: concentration that halved cell viability; cited from earlier work
# HaCaT cells [7] = assay: Phototoxicity test: MTT viability of pre-treated HaCaT cells after UVA or UVB exposure; type: cell-based, human; details: 18 h pre-incubation; for change in cell viability after UVA: UVA 60 min 24 J/cm^2, vs irradiated sample without compound
# Procedure: In the next study, HaCaT cells were incubated with two apparently non-toxic concentrations of these UV-absorbing compounds for 18 h and then their effect on the viability of HaCaT cells exposed to UVA (for 60 min at a dose of 24 J/cm^2) and UVB radiation for 3 min (at a dose of 0.6 J/cm^2) was monitored.
# as §1, §2
# [8] = system: PANC-1 (pancreatic cancer); set-up: method as in PMID 26676634; details: PANC-1, 24 h; read-out: concentration that halved cell viability; cited from earlier work
# HaCaT cells [9] = assay: Atomic force microscopy of HaCaT cell morphology after UV irradiation; type: cell-based, human; details: 50 µM for 4 h
# Procedure: The size of HaCaT cells acquired by an atomic force microscope was calculated from 20 cells in an average using the NanoScope Analysis software. Cell diameter was measured along the longest part of the cell. Cells were first incubated with 50 µM hyperoside for 4 h and then irradiated with UVA radiation. […] Irradiating the cells by UV led to cluster disruption and changes in shape. It caused cell swelling, resulting in a decrease in the diameter (19.16 μm for UVA; 23.13 μm for UVB), an increase in the height (4.24 μm for UVA; 3.44 μm for UVB), and an overall elliptic shape compared to control cells (Figure 9). However, the pre-treatment of the cells with hyperoside prevented cells from those UVA-induced morphological changes. After the irradiation, the cells still formed clusters and there were no significant changes in the median of the diameter (29.87 μm) and median of the height (2.24 μm).
# HaCaT cells were seeded in Petri dishes (Willco, NLD) containing 2 mL of DMEM. The following day, the cells were exposed to UVA for 90 min and UVB for 20 min. Some cells were pre-incubated with 50 μM hyperoside for 4 h. Before irradiation, the growth medium was replaced with fresh DMEM. Immediately after irradiation, AFM measurements were performed using a Bioscope Catalyst atomic force microscope (Bruker, Billerica, MA, USA). The size of the cell scan was 100 × 100 μm and the scan rate was 0.2–0.3 Hz. […]
# HaCaT cells [10] = assay: Cytotoxicity (MTT) of UV-absorbing compounds in HaCaT culture without irradiation; type: cell-based, human; details: for cell viability (not reduced below): at 300 μM
# Procedure: as §1, §2
# [11] = 100 μM, UVB 3 min 0.6 J/cm^2, vs irradiated sample without compound
structure (smiles),measurement,setting,value
"O=C(c1ccccc1)c1ccc(O)cc1O [2,4-dihydroxybenzophenone]",change in mitochondrial membrane potential after UV,HaCaT cells [1],higher values of the mitochondrial membrane potential
same,IC50 at 18 h,[2],85 µM
COc1ccc(C(=O)c2ccccc2)c(O)c1 [2-hydroxy-4-methoxybenzophenone],change in mitochondrial membrane potential after UV,HaCaT cells [1],higher values of the mitochondrial membrane potential
same,IC50 at 18 h,[2],56 µM
same,DNA fragmentation after UVA (percentage of DNA in comet heads),HaCaT cells [3],reduction in DNA fragmentation
Cc1ccc(C=C2C(=O)C3(C)CCC2C3(C)C)cc1 (stereo not shown) [3-(4-methylbenzylidene)camphor],ROS production during UVA exposure,HaCaT cells [4]; 3 and 10 μM,statistically significant decrease in ROS production
same,IC50 at 18 h,[2],28 µM
same,DNA fragmentation after UVA (percentage of DNA in comet heads),HaCaT cells [3],reduction in DNA fragmentation
O=c1c(O[C@@H]2O[C@H](CO)[C@@H](O)[C@H](O)[C@H]2O)c(-c2ccc(O)cc2)oc2cc(O)cc(O)c12 [astragalin],IC50 at 18 h,[2],78 µM
same,DNA fragmentation after UVA (percentage of DNA in comet heads),HaCaT cells [3],reduction in DNA fragmentation
CC1=C(/C=C/C(C)=C/C=C/C(C)=C/C=C/C=C(C)/C=C/C=C(C)/C=C/C2=C(C)CCCC2(C)C)C(C)(C)CCC1 [beta-carotene],change in mitochondrial membrane potential after UV,HaCaT cells [1],higher values of the mitochondrial membrane potential
same,IC50 at 18 h,[2],7.3 µM
O=c1c(O[C@@H]2O[C@H](CO)[C@H](O)[C@H](O)[C@H]2O)c(-c2ccc(O)c(O)c2)oc2cc(O)cc(O)c12 [hyperoside],change in mitochondrial membrane potential after UV,HaCaT cells [1],opposite effect
same,IC50,[5],~400 µM
same,change in viability of EpiDerm after UVA irradiation,epidermis model EpiDerm,significantly increased its viability
same,IC50,[6],~100 µM
same,ROS production during UVA exposure,HaCaT cells [4]; 100 μM,statistically significant decrease in ROS production
same,ROS induced by UVB irradiation,"HaCaT cells [4]; 30 and 100 μM, UVB 3 min 0.6 J/cm^2",effective in reducing ROS
same,change in cell viability after UVA,HaCaT cells [7]; 100 μM,"also observed for UVA radiation, although to a lesser extent"
same,change in cell viability after UVB,HaCaT cells [7]; [11],statistically significant increase in cell viability
same,IC50,[8],~550 µM
same,median of the cell height after UVA,"HaCaT cells [9]; then UVA 36 J/cm^2, untreated control 2.02 μm, UVA alone 4.24 μm",2.24 μm
same,median of the cell diameter after UVA,"HaCaT cells [9]; then UVA 36 J/cm^2, untreated control 31.21 μm, UVA alone 19.16 μm",29.87 μm
same,IC50 at 18 h,[2],> 300 µM
same,cell viability (not reduced below),HaCaT cells [10],≥ 60%
same,DNA fragmentation after UVA (percentage of DNA in comet heads),HaCaT cells [3],reduction in DNA fragmentation
COc1cc(O)c2c(=O)c(OC)c(-c3ccc(O)c(OC)c3)oc2c1 [pachypodol],change in cell viability after UVB,"HaCaT cells [7]; apparently non-toxic concentrations, UVB 0.6 J/cm^2",cell viability decreased significantly
same,IC50 at 18 h,[2],5.1 µM
same,reduction in cell viability,HaCaT cells [10]; at 10 μM,> 50%
O=C(O)/C=C/c1c[nH]cn1 [trans-urocanic acid],change in viability of EpiDerm after UVA irradiation,epidermis model EpiDerm,no similar effect was observed
same,change in cell viability after UVA,HaCaT cells [7]; 100 μM,only linked with UVB radiation
same,change in cell viability after UVB,HaCaT cells [7]; [11],statistically significant increase in cell viability
same,IC50 at 18 h,[2],1100 µM
same,cell viability (not reduced below),HaCaT cells [10],≥ 60%
